Measurements reported in patent US20260216182A1, “PYRIDAZINE NLRP3 INHIBITOR COMPOUND, PHARMACEUTICAL COMPOSITION, AND PREPARATION METHOD THEREFOR AND USE THEREOF” (CHANGCHUN GENESCIENCE PHARMACEUTICAL CO., LTD., priority 2022, published 2026).
Read-outs that look alike come from different tables or passages of the source.

Columns and labels:
NLRP3 = target: T1, NLRP3 (Homo sapiens, UniProt Q96P20); assay: IC50 of NLRP3 inhibitors in reducing IL-1β secretion by THP-1 cells (PMA, LPS, nigericin; ELISA); assay type: cell-based; details: compound + nigericin 1 h
T1 construct: endogenous in cells; host or cells: THP-1 (human monocyte, PMA-differentiated, LPS-primed, nigericin-stimulated)
Procedure: Test Example 1 Experiment on Detection of IC50 of NLRP3 Inhibitors in Reducing the Level of IL-1β Secretion by THP-1 Cells
In this experiment, we use the human monocyte THP-1 to study the inhibitory activity of NLRP3 inhibitor on the secretion of IL-Iβ by cells. Human THP-1 cells are treated with crotonol-12-tetradecanoate-13-acetate (PMA) to differentiate into mature macrophage models. Then, according to the two stages of inflammasome formation in cells (assembly and activation), the cells are stimulated with lipopolysaccharide (LPS) and nigericin in turn, ultimately promoting the extracellular release of IL-1β by THP-1 cells. The first stage of inflammasome formation involves stimulating cells with LPS (lipopolysaccharide), an agonist of the Toll-like receptor TLR4, to activate the expression of the inflammasome-associated proteins NLRP3, caspase 1, and pro-IL-1β, a precursor of IL-1β. The second stage of inflammasome formation involves the addition of the potassium ion carrier nigericin, which causes a series of membrane potential changes in THP-1 cells, destroys the cell membrane structure, causes the efflux of cellular potassium ions, further stimulates the oligomerization of NLRP3 monomers to form NLRP3 oligomers, and begins to recruit ASC and pro-caspase-1 to assemble the NLRP3 inflammasome complex containing a large amount of pro-caspase-1. The pro-caspase-1 on the activated NLRP3 inflammasome is enzymatically self-activated to form a large amount of active caspase-1. The activated caspase-1 further enzymatically promotes the conversion of pro-IL-1β into mature IL-1β that can be secreted.
(1) Cell suspensions were collected. The cells were centrifuged at 1000 rpm for 4 min, the supernatant was discarded, the cells were resuspended with 1 mL of test medium, and then the cell culture medium was gently pipetted up and down with a pipette and its tip to break up the cell aggregates. After counting the cells, the THP-1 cells were resuspended with complete RPMI medium 1640 containing PMA and seeded into 96-well plates and cultured in a 37° C., 5% CO2 incubator for 72 h.
(2) The culture medium was taken out from each well with an automatic plate washer dispenser EL406 and each well was rinsed twice with PBS. To each well, 96 μL of RPMI 1640 medium containing LPS was added. The cells were cultured in a 37° C., 5% CO2 incubator for 4 h.
(3) To each well, 2 μL of the compound and 2 μL of nigericin sodium salt were added, and the final compound concentration selected was 5000 nM, 1000 nM, 200 nM, 40 nM, 8 nM, 1.6 nM, 0.32 nM, 0 nM, respectively. The cells were cultured in a 37° C., 5% CO2 incubator for 1 h.
(4) An appropriate amount of supernatant was taken out, diluted 100 times, and the content of IL-1β in the supernatant was detected using Human IL-1 beta Valukine ELISA kit.

IL-1β = assay: Mouse acute peritonitis model (LPS/ATP), IL-1β in peritoneal lavage fluid and blood; assay type: in vivo, C57BL/6 mice; details: Mus musculus, 10 mg/kg oral, vs vehicle group
Procedure: Test Example 2: Mouse Acute Peritonitis Model Evaluation Experiment
Male C57BL/6 mice were orally administered with a 10 mg/kg dose of the test compound or control vehicle, and then injected intraperitoneally with 1 μg of E. coli 055: B5 ultrapure lipopolysaccharide (LPS) suspension 1 h later, followed by an intraperitoneal injection of 0.5 ml of 30 mM disodium salt ATP suspension (in PBS, the pH of the ATP solution was adjusted to 7.2 before injection) 2 h later. After 30 min, all animals would be euthanized by carbon dioxide, and blood and peritoneal lavage fluid would be collected. The peritoneal lavage fluid was kept at 4° C.
Preparation of peritoneal lavage fluid: The peritoneal cavity would be lavaged with ice-cold PBS (3 mL) containing 25 U/mL heparin and 10% heat-inactivated FBS. Prior to use, one tablet of the protease inhibitor mixture was added per 50 mL of buffer. The collected lavage fluid would be centrifuged (centrifugation conditions: 1000g, 4° C., 10 min) to remove cells and cell debris, and the clarified samples would be stored at −80° C. for measurement of cytokine IL-1β.
The mouse IL-1β/IL-1F2 DuoSet ELISA kit (R&D Systems) was used to measure the changes in IL-1β cytokine levels in peritoneal lavage fluid and serum. By comparing with the Vehical group, the inhibition rate of the compound on IL-1β was calculated.

mouse NASH model = assay: Mouse NASH model test (HFD + fructose), combination with semaglutide; assay type: in vivo, mice; details: low/high dose semaglutide alone
Procedure: Test Example 6 Mouse NASH Model Test
After the animals arrived and acclimatized for 1 week, they were randomly divided into 2 groups. 48 mice were fed a high-fat diet (HFD) and had free access to 15% fructose water (w/w). After the animals were fed for 20 weeks, they were fasted for 6 h, and fasting blood glucose (FBG) was monitored by a blood glucose meter. Orbital blood was taken from all animals, and serum was collected by centrifugation to detect serum ALT levels. Animals were randomly divided into 6 groups according to their body weight, FBG and ALT levels. After that, the high fat feed (HFD) was replaced with the modified high fat feed (mHFD), and the mice had free access to 15% fructose water (v/w). The 8 mice in the other group were fed normal diet and water.
The first end point of the experiment: After 8 weeks of administration, the end point body weight was recorded and the animals were fasted for 6 h, and fasting blood glucose was measured with a blood glucose meter. The mice were then euthanized by CO2 and serum was collected by orbital blood sampling and stored at −80° C. for insulin and biochemical analysis. The animal's liver was taken and the liver weight was recorded. The liver was divided into four parts, one part was quick-frozen in liquid nitrogen for biochemical analysis, one part was placed in tissue fixative for pathological analysis, one part was stored in RNAlater for qPCR detection (backup for later use), and one part was quick-frozen in liquid nitrogen for possible subsequent detection.
The second end point of the experiment: 3 mice were kept in each group for 6 weeks for further observation. The end point body weight was recorded and the mice were fasted for 6 h. Fasting blood glucose was tested with a blood glucose meter. The mice were then euthanized by CO2 and serum was collected by orbital blood sampling and stored at −80° C. for insulin and biochemical analysis. The animal's liver was taken and the liver weight was recorded. The liver was divided into four parts, one part was quick-frozen in liquid nitrogen for biochemical analysis, one part was placed in tissue fixative for pathological analysis, one part was stored in RNAlater for qPCR detection (backup for later use), and one part was quick-frozen in liquid nitrogen for subsequent detection.

[1] = read-out: IL-1β Peritoneal lavage fluid (inhibition rate)
[2] = read-out: IL-1β Plasma (inhibition rate)

T1 sequence (Q96P20 whole entry): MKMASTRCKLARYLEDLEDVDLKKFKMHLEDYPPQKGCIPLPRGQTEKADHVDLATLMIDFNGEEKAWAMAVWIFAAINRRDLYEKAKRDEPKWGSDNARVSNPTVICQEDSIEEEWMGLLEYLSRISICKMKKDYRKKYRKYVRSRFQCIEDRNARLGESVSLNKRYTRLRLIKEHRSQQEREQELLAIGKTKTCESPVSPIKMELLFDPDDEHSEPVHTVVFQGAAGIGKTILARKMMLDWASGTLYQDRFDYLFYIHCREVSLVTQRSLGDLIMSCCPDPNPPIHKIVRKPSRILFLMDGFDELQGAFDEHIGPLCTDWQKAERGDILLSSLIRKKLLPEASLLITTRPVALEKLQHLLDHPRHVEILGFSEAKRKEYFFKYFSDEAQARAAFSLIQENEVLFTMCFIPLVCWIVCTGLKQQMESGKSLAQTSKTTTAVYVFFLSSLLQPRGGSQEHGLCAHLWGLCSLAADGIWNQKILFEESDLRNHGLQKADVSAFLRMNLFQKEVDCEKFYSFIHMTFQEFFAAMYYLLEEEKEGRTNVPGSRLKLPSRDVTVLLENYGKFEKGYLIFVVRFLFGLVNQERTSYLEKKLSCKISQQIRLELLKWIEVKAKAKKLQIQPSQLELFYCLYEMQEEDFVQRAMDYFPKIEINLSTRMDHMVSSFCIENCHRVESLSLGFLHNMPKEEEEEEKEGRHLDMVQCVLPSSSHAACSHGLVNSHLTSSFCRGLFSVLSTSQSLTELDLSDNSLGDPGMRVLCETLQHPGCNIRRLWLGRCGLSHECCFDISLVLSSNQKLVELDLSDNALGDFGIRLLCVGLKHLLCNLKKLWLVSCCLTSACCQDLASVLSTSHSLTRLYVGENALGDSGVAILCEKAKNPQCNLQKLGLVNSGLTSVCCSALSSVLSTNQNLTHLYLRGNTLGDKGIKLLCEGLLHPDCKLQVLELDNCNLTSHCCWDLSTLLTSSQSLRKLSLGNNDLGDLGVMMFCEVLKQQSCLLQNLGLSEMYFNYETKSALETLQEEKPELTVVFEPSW

IC50 (NLRP3)	Compound	inhibition at 10 mg/kg (IL-1β; [1])	inhibition at 10 mg/kg (IL-1β; [2])	rebound of body weight after drug withdrawal (mouse NASH model)
15 nM	CC#Cc1ccc2c(-c3c(O)cc(Cl)cc3F)nnc(NC[C@H](O)CO)c2c1 [Compound 063, (2S)-3-((4-(4-chloro-2-fluoro-6-hydroxyphenyl)-7-(prop-1-yn-1-yl)phthalazin-1-yl)amino) propan-1,2-diol]	79%	74%	–
32 nM	CC(=O)c1ccc2c(-c3ccc(C(F)(F)F)cc3O)nnc(NC[C@H](O)CO)c2c1 [Compound 082]	0%	12%	–
–	semaglutide [reference compound]	–	–	neither the control compound combined with semaglutide nor the groups of low/high dose semaglutide alone inhibited the rebound of body weight
5.3 nM	CC(=O)c1ccc2c(-c3ccc(C(F)(F)F)cc3O)nnc(N[C@@H]3CCCC[C@H]3O)c2c1 [Compound 081]	45%	61%	–
41 nM	OC[C@@H](O)CNc1nnc(-c2ccc(Cl)cc2O)c2ccc(C#CC3CC3)cc12 [Compound 079, (S)-3-((4-(4-chloro-2-hydroxyphenyl)-7-(cyclopropylethynyl)phthalazin-1-yl)amino) propan-1,2-diol]	51%	21%	–
23 nM	CC#Cc1ccc2c(-c3c(O)cc(C(F)(F)F)cc3F)nnc(NC[C@H](C)O)c2c1 [Compound 071, 3-fluoro-2-(4-(((S)-2-hydroxypropyl)amino)-6-(prop-1-yn-1-yl)phthalazin-1-yl)-5-(trifluoromethyl)phenol]	–	–	–
7 nM	CC#Cc1ccc2c(-c3ccc(Cl)cc3O)nnc(N[C@@H]3CCCN(CCO)C3=O)c2c1 [Compound 075, (R)-3-((4-(4-chloro-2-hydroxyphenyl)-7-(prop-1-yn-1-yl)phthalazin-1-yl)amino)-1-(2-hydroxyethyl) piperidin-2-one]	–	–	–
28 nM	NC(=O)CN1CCC[C@@H](Nc2nnc(-c3ccc(Cl)cc3O)c3ccncc23)C1 [Compound 009, (R)-2-(3-((1-(4-chloro-2-hydroxyphenyl)pyrido[3,4-d]pyridazin-4-yl)amino)piperidin-1-yl)acetamide]	–	–	–
20 nM	CC#Cc1ccc2c(-c3c(O)cc(C(F)(F)F)cc3F)nnc(N[C@H]3C[C@@](C)(O)C3)c2c1 [Compound 066, 3-fluoro-2-(4-(((1S,3S)-3-hydroxy-3-methylcyclobutyl)amino)-6-(prop-1-yn-1-yl)phthalazin-1-yl)-5-(trifluoromethyl)phenol]	–	–	–
51 nM	CC#Cc1ccc2c(-c3ccc(Cl)cc3O)nnc(NCC(C)(C)O)c2c1 [Compound 036, 5-chloro-2-(4-((2-hydroxy-2-methylpropyl)amino)-6-(prop-1-yn-1-yl)phthalazin-1-yl)phenol]	–	–	–
66 nM	CC#Cc1ccc2c(-c3ccc(C(F)(F)F)cc3O)nnc(N[C@@H]3COCC[C@H]3O)c2c1 [Compound 067, (3R,4R)-3-((4-(2-hydroxy-4-(trifluoromethyl)phenyl)-7-(prop-1-yn-1-yl)phthalazin-1-yl)amino)tetrahydro-2H-pyran-4-ol]	–	–	–
18 nM	CC#Cc1ccc2c(-c3c(O)cc(C(F)(F)F)cc3F)nnc(NC[C@H](O)CO)c2c1 [Compound 064, (2S)-3-((4-(2-fluoro-6-hydroxy-4-(trifluoromethyl)phenyl)-7-(prop-1-yn-1-yl)phthalazin-1-yl)amino) propan-1,2-diol]	81%	90%	–
35 nM	Cc1cc(Cl)cc(O)c1-c1nnc(NCC(C)(C)O)c2cc(-n3cccn3)ccc12 [Compound 026, 5-chloro-2-(4-((2-hydroxy-2-methylpropyl)amino)-6-(1H-pyrazol-1-yl)phthalazin-1-yl)-3-methylphenol]	–	–	–
39 nM	CC#Cc1ccc2c(-c3ccc(C(F)(F)F)cc3O)nnc(N[C@@H]3CCCN(C)C3)c2c1 [Compound 068, (R)-2-(4-((1-methylpiperidin-3-yl)amino)-6-(prop-1-yn-1-yl)phthalazin-1-yl)-5-(trifluoromethyl)phenol]	–	–	–
35 nM	Cc1cc(Cl)cc(O)c1-c1nnc(NCC(C)(C)O)c2cc(-n3nccn3)ccc12 [Compound 028, 5-chloro-2-(4-((2-hydroxy-2-methylpropyl)amino)-6-(2H-1,2,3-triazol-2-yl)phthalazin-1-yl)-3-methylphenol]	–	–	–
